Source: patent US20150307938A1, “METHOD TO IDENTIFY A NOVEL CLASS OF IMMUNOLOGIC ADJUVANTS” (Lancell, L.L.C., priority 2011, published 2015)

Tested on: skin
Assay: Affymetrix microarray of skin, DBP-4 hr and analogs vs. untreated; gene selection by log-2 fold change, Wilcoxon, Kendall tau (Tables 8, 9)
Format: in vivo, mouse
Settings: mouse, in vivo

SMILES: CCCCOC(=O)c1ccccc1C(=O)OCCCC [DBP, dibutylphthalate]
- Nrap NM_198059_at ≧2-Fold change: No
- Nusap1 NM_133851_at ≧2-Fold change: No
- Ogfrl1 NM_001081079_at ≧2-Fold change: No
- Olr1 NM_138648_at ≧2-Fold change: No
- Otud7a (NM_130880_at) ≧2-Fold change: Yes
- Oxr1 NM_001130163_at ≧2-Fold change: No
- Oxr1 NM_001130164_at ≧2-Fold change: No
- Oxr1 NM_001130165_at ≧2-Fold change: No
- Oxr1 NM_001130166_at ≧2-Fold change: No
- Pde4b (NM_019840_at) ≧2-Fold change: Yes
- Pdk4 (NM_013743_at) ≧2-Fold change: Yes
- Pgam2 NM_018870_at ≧2-Fold change: No
- Pigyl NM_001082532_at ≧2-Fold change: No
- Plaur (NM_011113_at) ≧2-Fold change: Yes
- Plek (NM_019549_at) ≧2-Fold change: Yes
- Plscr1 (NM_011636_at) ≧2-Fold change: Yes
- Pmaip1 (NM_021451_at) ≧2-Fold change: Yes
- Pparg NM_001127330_at ≧2-Fold change: No
- Ppih NM_001110129_at ≧2-Fold change: No
- Prg4 NM_021400_at ≧2-Fold change: No
- Prss22 (NM_133731_at) ≧2-Fold change: Yes
- Ptges (NM_022415_at) ≧2-Fold change: Yes
- Pyy (NM_145435_at) ≧2-Fold change: Yes
- Rab20 (NM_011227_at) ≧2-Fold change: Yes
- Ramp3 (NM_019511_at) ≧2-Fold change: Yes
- Retnla NM_020509_at ≧2-Fold change: No
- Rffl NM_001007465_at ≧2-Fold change: No
- Rgs1 (NM_015811_at) ≧2-Fold change: Yes
- Rn18s NR_003278_at ≧2-Fold change: No
- Rnf19b (NM_029219_at) ≧2-Fold change: Yes
- Rpl3l NM_025425_at ≧2-Fold change: No
- Saa3 (NM_011315_at) ≧2-Fold change: Yes
- Slc5a1 (NM_019810_at) ≧2-Fold change: Yes
- Slc7a5 (NM_011404_at) ≧2-Fold change: Yes
- Slc10a6 (NM_029415_at) ≧2-Fold change: Yes
- Slc15a3 (NM_023044_at) ≧2-Fold change: Yes
- Slc25a25 (NM_146118_at) ≧2-Fold change: Yes
- Slc34a2 (NM_011402_at) ≧2-Fold change: Yes
- Slc39a8 (NM_026228_at) ≧2-Fold change: Yes
- Slc39a14 NM_001135151_at ≧2-Fold change: No
- Slfn2 (NM_011408_at) ≧2-Fold change: Yes
- Slfn4 (NM_011410_at) ≧2-Fold change: Yes
- Sln NM_025540_at ≧2-Fold change: No
- Slpi (NM_011414_at) ≧2-Fold change: Yes
- Smox (NM_145533_at) ≧2-Fold change: Yes
- Smpx NM_025357_at ≧2-Fold change: No
- Stfa3 (NM_025288_at) ≧2-Fold change: Yes
- Timp1 (NM_011593_at) ≧2-Fold change: Yes
- Tlr2 (NM_011905_at) ≧2-Fold change: Yes
- Tnf (NM_013693_at) ≧2-Fold change: Yes
- Tnfrsf9 NM_001077508_at ≧2-Fold change: No
- Tnfrsf9 NM_001077509_at ≧2-Fold change: No
- Tnfrsf12a (NM_013749_at) ≧2-Fold change: Yes
- Tnni1 NM_021467_at ≧2-Fold change: No
- Trdn NM_029726_at ≧2-Fold change: No
- Trf NM_133977_at ≧2-Fold change: No
- Trp63 NM_001127259_at ≧2-Fold change: No
- Trp63 NM_001127260_at ≧2-Fold change: No
- Trp63 NM_001127262_at ≧2-Fold change: No
- Trp63 NM_001127264_at ≧2-Fold change: No
- Tslp (NM_021367_at) ≧2-Fold change: Yes
- Tslp (NR_033206_at) ≧2-Fold change: Yes
- Ttn NM_028004_at ≧2-Fold change: No
- Tubb6 (NM_026473_at) ≧2-Fold change: Yes
- Uap1 (NM_133806_at) ≧2-Fold change: Yes
- Wbp1 NM_001083922_at ≧2-Fold change: No
- Wbp1 NM_001083923_at ≧2-Fold change: No
- Wfdc2 NM_026323_at ≧2-Fold change: No
- Zc3h12a (NM_153159_at) ≧2-Fold change: Yes
- Zfp36 (NM_011756_at) ≧2-Fold change: Yes
- Zfp68 NM_001044747_at ≧2-Fold change: No
- Zfp187 NM_001013786_at ≧2-Fold change: No
- Zfp518b NM_001081144_at ≧2-Fold change: No
- Zfp593 (NM_024215_at) ≧2-Fold change: Yes
- Zfp943 NM_001025373_at ≧2-Fold change: No
- ≧2-Fold change: No and Yes
- ≧2-Fold change: 1810046J19Rik: No
- ≧2-Fold change: 4933434E20Rik: No
- ≧2-Fold change: Abhd6: No
- ≧2-Fold change: Acad8: No
- ≧2-Fold change: Ak2: No
- ≧2-Fold change: Akr1e1: No
- ≧2-Fold change: Avpr1a: No
- ≧2-Fold change: B4galt1: No
- ≧2-Fold change: Bphl: No
- ≧2-Fold change: Cdkl2: No
- ≧2-Fold change: Cep70: No
- ≧2-Fold change: Cirh1a: No
- ≧2-Fold change: Clec14a: No
- ≧2-Fold change: Commd4: No
- ≧2-Fold change: Cr1l: No
- ≧2-Fold change: Cyth1: No
- ≧2-Fold change: D16Ertd472e: No
- ≧2-Fold change: Dcxr: No
- ≧2-Fold change: Dda1: No
- ≧2-Fold change: Diablo: No
- ≧2-Fold change: Dmap1: No
- ≧2-Fold change: Dnajc4: No
- ≧2-Fold change: Eid1: No
- ≧2-Fold change: Eif6: No
- ≧2-Fold change: Erlec1: No
- ≧2-Fold change: Fam134b: No
- ≧2-Fold change: Fbxo25: No
- ≧2-Fold change: Fgf13: No
- ≧2-Fold change: Flt1: No
- ≧2-Fold change: Fmo5: No
- ≧2-Fold change: Ftsj3: No
- ≧2-Fold change: Gcnt2: No
- ≧2-Fold change: Gmcl1: No
- ≧2-Fold change: Gpn3: No
- ≧2-Fold change: Gstz1: No
- ≧2-Fold change: Gtf2h2: No
- ≧2-Fold change: Gtf3a: No
- ≧2-Fold change: Hsdl2: No
- ≧2-Fold change: Icos: No
- ≧2-Fold change: Ifngr1: No
- ≧2-Fold change: Inpp5d: No
- ≧2-Fold change: Itgax: No
- ≧2-Fold change: Itk: No
- ≧2-Fold change: Krt17: No
- ≧2-Fold change: Map3k14: No
- ≧2-Fold change: Mdp1: No
- ≧2-Fold change: Meis1: No
- ≧2-Fold change: Mkrn3: No
- ≧2-Fold change: Mtcp1: No
- ≧2-Fold change: Mum1: No
- ≧2-Fold change: Myd88: No
- ≧2-Fold change: Nagk: No
- ≧2-Fold change: Ndufaf3: No
- ≧2-Fold change: Nek3: No
- ≧2-Fold change: Nfkb2: No
- ≧2-Fold change: Nicn1: No
- ≧2-Fold change: Nme3: No
- ≧2-Fold change: Ntpcr: No
- ≧2-Fold change: Orc3: No
- ≧2-Fold change: Padi1: No
- ≧2-Fold change: Panx1: No
- ≧2-Fold change: Pfdn2: No
- ≧2-Fold change: Phtf1: No
- ≧2-Fold change: Pigp: No
- ≧2-Fold change: Pkp4: No
- ≧2-Fold change: Plk3: No
- ≧2-Fold change: Polr2g: No
- ≧2-Fold change: Pparg: No
- ≧2-Fold change: Ppp1r7: No
- ≧2-Fold change: Prokr1: No
- ≧2-Fold change: Ptpn1: No
- ≧2-Fold change: Rabgef1: No
- ≧2-Fold change: Rai12: No
- ≧2-Fold change: Rbbp6: No
- ≧2-Fold change: Rpl7l1: No
- ≧2-Fold change: Sema4d: No
- ≧2-Fold change: Siae: No
- ≧2-Fold change: Sirt1: No
- ≧2-Fold change: Slc9a3r1: No
- ≧2-Fold change: Slc30a4: No
- ≧2-Fold change: Slc35a1: No
- ≧2-Fold change: Smarcb1: No
- ≧2-Fold change: Srsf6: No
- ≧2-Fold change: Stx17: No
- ≧2-Fold change: Tmed1: No
- ≧2-Fold change: Tmem208: No
- ≧2-Fold change: Tnfrsf1a: No
- ≧2-Fold change: Tnfrsf9: No
- ≧2-Fold change: Trappc2l: No
- ≧2-Fold change: Tril: No
- ≧2-Fold change: Trim12a: No
- ≧2-Fold change: Trip4: No
- ≧2-Fold change: Trp63: No
- ≧2-Fold change: Trpv2: No
- ≧2-Fold change: Tsn: No
- ≧2-Fold change: Ufc1: No
- ≧2-Fold change: Ulk2: No
- ≧2-Fold change: Wbp1: No
- ≧2-Fold change: Zfp68: No
- ≧2-Fold change: Zfp90: No
- ≧2-Fold change: Zkscan3: No
- ≧2-Fold change: Zkscan6: No
